Reference: patent US20260165983A1, “VITAMIN A FORMULATION” (ADISSEO FRANCE S.A.S., priority 2020, published 2026)

Assays:
[1] = Dynamic oxidation test by DSC (differential scanning calorimeter) under oxygen flow; type: physicochemical; conditions: oxygen flow 50 ml/min; vitamin A acetate with 20% by weight antioxidant; higher temperature = higher antioxidant power
Procedure: (§1) The antioxidant power measurement methods used in the examples for antioxidant and vitamin A (as vitamin A acetate) mixtures are shown below.
1) Dynamic Oxidation Test by DSC (Differential Scanning Calorimeter)
It is carried out under oxygen flow (50 ml/min) then the temperature is raised to a temperature above the melting point of vitamin A (i.e. above 60° C.).
The oxidation corresponds to an exothermic phenomenon which occurs at a given temperature. For BHT, it occurs at 153° C. The higher the oxidation temperature, the higher the antioxidant power.
All the samples having a temperature greater than or equal to 120° C. will be retained for a much longer Oxipres test.

[2] = Oxipres test (oxygen consumption under O2 pressure); type: physicochemical
Text: as §1
This test consists of putting the samples under O2 pressure at a given temperature. The method allows determining the kinetics of oxygen consumption, expressed by a variation of O2 (ΔP in bars), this variation being all the smaller as the antioxidant power is high.

| Structure (SMILES) | DSC DYN Onset (oxidation temperature) [1] | Oxipres Time ([2]; under O2 pressure at a given temperature) | Oxipres ΔP (variation of O2) ([2]; under O2 pressure, smaller ΔP = higher antioxidant power) |
| --- | --- | --- | --- |
| Cc1cc(C(C)(C)C)c(O)c(C(C)(C)C)c1 [BHT, 2,6-di-tert-butyl-4-methyl-phenol, reference compound] | 153 °C | – | – |
| CC(=O)OC/C=C(C)/C=C/C=C(C)/C=C/C1=C(C)CCCC1(C)C [Sample 1, vitamin A acetate] | 60 °C | 0 h | 5.0 Bars |
